Consider 14 molecules from patent US7250442B2, “Dihydroindol-2-one derivatives as steroid hormone nuclear receptor modulators” (Eli Lilly and Company, priority 2003, dated 2007).

The experiment has as its target T1, glucocorticoid receptor (Homo sapiens, UniProt P04150).
T1 construct: host or cells: A549 human lung epithelial cells (sonicated cell extract)
T1 sequence (P04150 1-777): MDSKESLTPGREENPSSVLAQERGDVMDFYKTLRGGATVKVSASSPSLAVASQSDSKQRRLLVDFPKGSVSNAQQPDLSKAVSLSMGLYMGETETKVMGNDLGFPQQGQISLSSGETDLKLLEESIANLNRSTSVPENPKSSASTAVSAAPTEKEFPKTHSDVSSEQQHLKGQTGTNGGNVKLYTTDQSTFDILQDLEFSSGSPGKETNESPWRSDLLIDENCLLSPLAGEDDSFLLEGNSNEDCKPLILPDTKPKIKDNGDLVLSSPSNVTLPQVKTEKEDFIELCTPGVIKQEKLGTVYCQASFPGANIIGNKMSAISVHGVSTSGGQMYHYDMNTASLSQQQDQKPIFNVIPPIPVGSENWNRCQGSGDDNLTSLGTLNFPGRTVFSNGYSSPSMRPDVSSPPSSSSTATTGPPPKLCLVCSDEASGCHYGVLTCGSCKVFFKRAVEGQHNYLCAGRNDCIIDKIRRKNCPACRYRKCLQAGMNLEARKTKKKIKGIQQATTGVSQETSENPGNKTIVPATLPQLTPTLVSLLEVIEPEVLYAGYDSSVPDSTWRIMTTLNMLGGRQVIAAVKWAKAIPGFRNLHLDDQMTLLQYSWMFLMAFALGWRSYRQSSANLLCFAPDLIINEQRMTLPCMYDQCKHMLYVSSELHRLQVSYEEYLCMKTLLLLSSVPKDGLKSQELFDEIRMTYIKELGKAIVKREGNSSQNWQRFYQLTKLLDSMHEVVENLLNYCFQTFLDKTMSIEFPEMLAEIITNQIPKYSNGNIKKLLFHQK
In words: Glucocorticoid Receptor Binding Assay ([3H]-dexamethasone displacement, A549 cell extract). Particulars: A549 human lung epithelial cell extract, 1.86 nM [3H]-dexamethasone; read-out: GR Ki. How it is done: Glucocorticoid Receptor Binding Assay:
A549 human lung epithelial cells (ATCC) are grown at a scale where gram quantity cell pellets are obtained. Harvested cell pellets are washed twice in cold phosphate buffered saline, centrifuged, and resuspended in cold assay binding buffer. The assay binding buffer consists of 10% glycerol, 50 mM Tris-HCl (pH7.2), 75 mM sodium chloride, 1.5 mM magnesium chloride, 1.5 mM EDTA, and 10 mM sodium molybdate. Cell suspensions were lysed via sonication, centrifuged, and the “extract” supernatant is snap frozen and stored at −80C. until needed.
GR binding assays are performed in a final volume of 140 ul containing 50-200 ug of A549 cell extract and 1.86 nM [^3H]-dexamethasone (Amersham) plus varying concentrations of test compound or vehicle. Briefly, assays are prepared at RT in 96-well Fisher 3356 plates, each well containing 100 ul of A549 cell extract, 20 ul of [^3H]-dexamethasone, and 20 ul of test compound/vehicle. Incubations are carried out at 4 degrees celsius for 16 hours. After incubation, 70 ul of 3× dextran-coated charcoal solution is added to each reaction, mixed, and incubated for 8 minutes at RT. 3×-dextran-coated charcoal solution consists of 250 ml assay binding buffer, 3.75 g Norit A charcoal (Sigma), and 1.25 g dextran T-70 (Amersham). Charcoal/unbound radioligand complexes are removed by centrifugation of the plate and 140 ul of supernatant from each well is transferred to another 96 well Optiplate (Packard Instruments). 200 ul of Microscint-20 scinillant (Packard Instruments) is added to each well and amount of receptor bound radioligand is determined using Packard Instruments TopCount instrument.
IC50 values, defined as the concentration of test compound required to decrease [^3H]-dexamethasone binding by 50%, are then determined. Ki values for each respective test compound can then be calculated by application of the Cheng-Prusoff equation as described in Cheng et al., Relationship Between The Inhibition Constant (Ki) and The Concentration of Inhibitor Which Causes 50% Inhibition (IC50) of an Enzymatic Reaction, Biochem. Pharmacol., 22: 3099-31088; (1973).

With `COc1ccc(CN2C(=O)C(c3cc(C)c(O)c(C)c3)(c3cc(C)c(O)c(C)c3)c3ccccc32)cc1` [Example 1, 3,3-Bis-(4-hydroxy-3,5-dimethyl-phenyl)-1-(4-methoxy-benzyl)-1,3-dihydro-indol-2-one], the Ki is not above 0.5 µM. To `COC(=O)c1ccc(CN2C(=O)C(c3cc(C)c(O)c(C)c3)(c3cc(C)c(O)c(C)c3)c3ccccc32)cc1` [Example 3, 4-[3,3-Bis-(4-hydroxy-3,5-dimethyl-phenyl)-2-oxo-2,3-dihydro-indol-1-ylmethyl]-benzoic acid methyl ester] belongs not above 0.5 µM; to `Cc1cc(C2(c3cc(C)c(O)c(C)c3)C(=O)N(C)c3ccccc32)cc(C)c1O` [Example 4, 3,3-Bis-(4-hydroxy-3,5-dimethyl-phenyl)-1-methyl-1,3-dihydro-indol-2-one], not above 0.5 µM. Consider `CCCN1C(=O)C(c2cc(C)c(O)c(C)c2)(c2cc(C)c(O)c(C)c2)c2ccccc21` [Example 5, 3,3-Bis-(4-hydroxy-3,5-dimethyl-phenyl)-1-propyl-1,3-dihydro-indol-2-one], for which the inhibition constant (Ki) was not above 0.5 µM. In the case of `Cc1cc(C2(c3cc(C)c(O)c(C)c3)C(=O)N(CC3CCCCC3)c3ccccc32)cc(C)c1O` [Example 6, 1-Cyclohexylmethyl-3,3-bis-(4-hydroxy-3,5-dimethyl-phenyl)-1,3-dihydro-indol-2-one], the Ki was not above 0.5 µM. For `Cc1cc(C2(c3cc(C)c(O)c(C)c3)C(=O)N(Cc3cccc(OC(F)(F)F)c3)c3ccccc32)cc(C)c1O` [Example 8, 3,3-Bis-(4-hydroxy-3,5-dimethyl-phenyl)-1-(3-trifluoromethoxy-benzyl)-1,3-dihydro-indol-2-one], the Ki was not above 0.5 µM. `Cc1cc(C2(c3cc(C)c(O)c(C)c3)C(=O)N(Cc3c(C)noc3C)c3ccccc32)cc(C)c1O` [Example 9, 1-(3,5-Dimethyl-isoxazol-4-ylmethyl)-3,3-bis-(4-hydroxy-3,5-dimethyl-phenyl)-1,3-dihydro-indol-2-one]: the Ki was not above 0.5 µM.

On to `Cc1cc(C2(c3cc(C)c(O)c(C)c3)C(=O)N(Cc3ccccc3Cl)c3ccccc32)cc(C)c1O` [Example 11, 1-(2-Chloro-benzyl)-3,3-bis-(4-hydroxy-3,5-dimethyl-phenyl)-1,3-dihydro-indol-2-one], for which the Ki was not above 0.5 µM. On to `Cc1cc(C2(c3ccc(O)c(C)c3)C(=O)N(Cc3ccccc3)c3ccccc32)ccc1O` [Example 12, 1-Benzyl-3,3-bis-(4-hydroxy-3-methyl-phenyl)-1,3-dihydro-indol-2-one], for which the Ki was not above 0.5 µM.

As for `O=C1N(Cc2ccccc2)c2ccccc2C1(c1cc(Cl)c(O)c(Cl)c1)c1cc(Cl)c(O)c(Cl)c1` [Example 14, 1-Benzyl-3,3-bis-(3,5-dichloro-4-hydroxy-phenyl)-1,3-dihydro-indol-2-one], the Ki is not above 0.5 µM. For `Cc1cc(C2(c3cc(C)c(O)c(C)c3)C(=O)N(Cc3ccccc3)c3ccc(Br)cc32)cc(C)c1O` [Example 15, 1-Benzyl-5-bromo-3,3-bis-(4-hydroxy-3,5-dimethyl-phenyl)-1,3-dihydro-indol-2-one], the Ki is not above 1 µM. Then `Cc1ccc2c(c1)C(c1cc(C)c(O)c(C)c1)(c1cc(C)c(O)c(C)c1)C(=O)N2Cc1ccccc1` [Example 17, 1-Benzyl-3,3-bis-(4-hydroxy-3,5-dimethyl-phenyl)-5-methyl-1,3-dihydro-indol-2-one], with not above 0.5 µM. As for `Cc1cc(C2(c3cc(C)c(O)c(C)c3)C(=O)N(Cc3ccccc3Cl)c3ccc(Br)cc32)cc(C)c1O` [Example 19, 5-Bromo-1-(2-chloro-benzyl)-3,3-bis-(4-hydroxy-3,5-dimethyl-phenyl)-1,3-dihydro-indol-2-one], the Ki was not above 1 µM. Turning to `Cc1ccccc1CN1C(=O)C(c2cc(C)c(O)c(C)c2)(c2cc(C)c(O)c(C)c2)c2cc(Br)ccc21` [Example 20, 5-Bromo-3,3-bis-(4-hydroxy-3,5-dimethyl-phenyl)-1-(2-methyl-benzyl)-1,3-dihydro-indol-2-one], the Ki was not above 0.5 µM.

The term Ki denotes the dissociation constant of the complex between target and ligand, obtained from inhibition or displacement.
